Data as given in ChEMBL document CHEMBL3885861, “Open TG-GATES”.

Species on record: Rattus norvegicus
Test: Open TG-GATES - Regimen: Daily Repeat
Type: toxicity, organism-based, Sprague-Dawley
Set-up: regimen Daily Repeat, gender Male, age 6 weeks
Details: in vivo, po, 8 mg/kg, […], route gavage, dose level Low; for KIDNEY_L / KIDNEY_R / KIDNEY_TOTAL: tissue Kidney; for LIVER: tissue Liver; for A/G / ALP / ALT / AST / BUN / CRE / Ca / Cl / DBIL / GLC / IP / K / LDH / Na / PL / RALB / TBIL / TC / TG / TP / gamma-GTP: tissue Plasma

NC1=NC(=O)C(c2ccccc2)O1 (stereo unspecified) [PEMOLINE]
Lym (tissue Blood, time 28 day): 70% | MCH (tissue Blood, time 28 day): 20.3 pg | MCHC (tissue Blood, time 28 day): 36.2% | MCV (tissue Blood, time 28 day): 56.2 fL | Mono (tissue Blood, time 28 day): 3.4% | Neu (tissue Blood, time 28 day): 24.6% | PT (tissue Blood, time 28 day): 12.5 s | Plat (tissue Blood, time 28 day): 97.4 x10_4/uL | RBC (tissue Blood, time 28 day): 746.4 x10_4/ul | Ret (tissue Blood, time 28 day): 3.1% | WBC (tissue Blood, time 28 day): 106.7 x10_2/uL | KIDNEY_L (time 7 day): 1.2 g | KIDNEY_R (time 7 day): 1.1 g | KIDNEY_TOTAL (time 7 day): 2.3 g | KIDNEY_L (time 14 day): 1.3 g | KIDNEY_R (time 14 day): 1.3 g | KIDNEY_TOTAL (time 14 day): 2.6 g | KIDNEY_L (time 28 day): 1.6 g | KIDNEY_R (time 28 day): 1.6 g | KIDNEY_TOTAL (time 28 day): 3.2 g | LIVER (time 7 day): 12.4 g | LIVER (time 14 day): 14.9 g | LIVER (time 28 day): 17.3 g | A/G (time 7 day): 0.9 | ALP (time 7 day): 1719 IU/L | ALT (time 7 day): 45 IU/L | AST (time 7 day): 69.8 IU/L | BUN (time 7 day): 15.8 mg/dL | CRE (time 7 day): 0.2 mg/dL | Ca (time 7 day): 10.5 mg/dL | Cl (time 7 day): 103.8 meq/L | DBIL (time 7 day): 0.014 mg/dL | GLC (time 7 day): 180.8 mg/dL | IP (time 7 day): 7.6 mg/dL | K (time 7 day): 3.9 meq/L | LDH (time 7 day): 62.6 IU/L | Na (time 7 day): 142 meq/L | PL (time 7 day): 152.6 mg/dL | RALB (time 7 day): 2.6 g/dL | TBIL (time 7 day): 0.026 mg/dL | TC (time 7 day): 84.6 mg/dL | TG (time 7 day): 94.4 mg/dL | TP (time 7 day): 5.7 g/dL | gamma-GTP (time 7 day): 1 IU/L | A/G (time 14 day): 0.8 | ALP (time 14 day): 1588.8 IU/L | ALT (time 14 day): 47.4 IU/L | AST (time 14 day): 70.4 IU/L | BUN (time 14 day): 14.8 mg/dL | CRE (time 14 day): 0.2 mg/dL | Ca (time 14 day): 11.1 mg/dL | Cl (time 14 day): 105.6 meq/L | DBIL (time 14 day): 0.014 mg/dL | GLC (time 14 day): 179.2 mg/dL | IP (time 14 day): 8.2 mg/dL | K (time 14 day): 3.7 meq/L | LDH (time 14 day): 75 IU/L | Na (time 14 day): 144.6 meq/L | PL (time 14 day): 150.4 mg/dL | RALB (time 14 day): 2.7 g/dL | TBIL (time 14 day): 0.028 mg/dL | TC (time 14 day): 80 mg/dL | TG (time 14 day): 117 mg/dL | TP (time 14 day): 5.8 g/dL | gamma-GTP (time 14 day): 1 IU/L | A/G (time 28 day): 0.8 | ALP (time 28 day): 966.8 IU/L | ALT (time 28 day): 41.4 IU/L | AST (time 28 day): 63.2 IU/L | BUN (time 28 day): 15.2 mg/dL | CRE (time 28 day): 0.2 mg/dL | Ca (time 28 day): 11.4 mg/dL | Cl (time 28 day): 104.8 meq/L | DBIL (time 28 day): 0.016 mg/dL | GLC (time 28 day): 192.2 mg/dL | IP (time 28 day): 7.5 mg/dL | K (time 28 day): 3.9 meq/L | LDH (time 28 day): 61.8 IU/L | Na (time 28 day): 142.6 meq/L | PL (time 28 day): 154.6 mg/dL | RALB (time 28 day): 2.8 g/dL | TBIL (time 28 day): 0.028 mg/dL | TC (time 28 day): 84.4 mg/dL | TG (time 28 day): 121.4 mg/dL | TP (time 28 day): 6.1 g/dL | gamma-GTP (time 28 day): 1 IU/L
